pKi: −log10 of the molar value. Read-outs that look alike come from different tables or passages of the source.
Legend:
[1] = tested on: apolipoprotein E knockout mice; details: cited from earlier work
[2] = tested on: microglial activation; details: in vitro; cited from earlier work
[3] = tested on: osteoclast activity; details: cited from earlier work
[4] = tested on: ovariectomy-induced bone loss; details: mice, model for post-menopausal osteoporosis; cited from earlier work
[5] = tested on: animal models of pain; details: animal models of acute thermal, persistent, inflammatory and neuropathic pain; cited from earlier work
[6] = target: T1, rat CB2 receptors (Rattus norvegicus, UniProt Q9QZN9); experiment: rat CB2 radioligand binding assay
T1 construct: expressed in transfected cells; membrane preparation
T1 sequence (Q9QZN9 1-360): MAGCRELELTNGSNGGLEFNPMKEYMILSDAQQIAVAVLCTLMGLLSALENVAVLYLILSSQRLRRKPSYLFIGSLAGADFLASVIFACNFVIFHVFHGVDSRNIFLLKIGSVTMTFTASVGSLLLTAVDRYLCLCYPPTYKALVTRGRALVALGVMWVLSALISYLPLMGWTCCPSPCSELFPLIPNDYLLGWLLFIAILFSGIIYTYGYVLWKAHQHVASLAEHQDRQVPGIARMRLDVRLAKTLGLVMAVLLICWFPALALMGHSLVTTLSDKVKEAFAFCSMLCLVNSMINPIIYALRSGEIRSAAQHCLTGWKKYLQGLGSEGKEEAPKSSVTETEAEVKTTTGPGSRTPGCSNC
Protocol: (§1) (i) In Vitro Methods—CB2 and CB1 Radioligand Binding Assays:
(§2) The CB1 and CB2 radioligand binding assays described herein are utilized to ascertain the selectivity of compounds of the present application for binding to CB2 relative to CB1 receptors.
(§3) HEK293 cells stably expressing rat CB2 receptors were grown until a confluent monolayer was formed. Briefly, the cells were harvested and homogenized in TE buffer (50 mM Tris-HCl, 1 mM MgCl2, and 1 mM EDTA) using a polytron for 2×10 second bursts in the presence of protease inhibitors, followed by centrifugation at 45,000×g for 20 minutes. The final membrane pellet was re-homogenized in storage buffer (50 mM Tris-HCl, 1 mM MgCl2, and 1 mM EDTA and 10% sucrose) and frozen at −78° C. until used. Saturation binding reactions were initiated by the addition of membrane preparation (protein concentration of 20 μg/well for rat CB2) into wells of a deep well plate containing [^3H]CP-55,940 (120 Ci/mmol, a nonselective CB agonist commercially available from Tocris) in assay buffer (50 mM Tris, 2.5 mM EDTA, 5 mM MgCl2, and 0.5 mg/mL fatty acid free BSA, pH 7.4). After 45 min incubation at 30° C., binding reaction was terminated by the addition of 300 μL/well of cold assay buffer followed by rapid vacuum filtration through a UniFilter-96 GF/C filter plates (pre-soaked in 1 mg/mL BSA for 2 hours). The bound activity was counted in a TopCount using Microscint-20. Saturation experiments were conducted with twelve concentrations of [^3H]CP-55,940 ranging from 0.01 to 8 nM. Competition experiments were conducted with 0.5 nM [^3H]CP-55,940 and five concentrations of displacing ligands selected from the range of 0.01 nM to 10 μM. The addition of 10 μM unlabeled CP-55,940 (Tocris, Ellisville, Mo.) was used to assess nonspecific binding.

[7] = target: T2, human CB2 receptors (Homo sapiens, UniProt P34972); experiment: human CB2 radioligand binding assay
T2 construct: expressed in transfected cells; membrane preparation
T2 sequence (P34972 whole entry): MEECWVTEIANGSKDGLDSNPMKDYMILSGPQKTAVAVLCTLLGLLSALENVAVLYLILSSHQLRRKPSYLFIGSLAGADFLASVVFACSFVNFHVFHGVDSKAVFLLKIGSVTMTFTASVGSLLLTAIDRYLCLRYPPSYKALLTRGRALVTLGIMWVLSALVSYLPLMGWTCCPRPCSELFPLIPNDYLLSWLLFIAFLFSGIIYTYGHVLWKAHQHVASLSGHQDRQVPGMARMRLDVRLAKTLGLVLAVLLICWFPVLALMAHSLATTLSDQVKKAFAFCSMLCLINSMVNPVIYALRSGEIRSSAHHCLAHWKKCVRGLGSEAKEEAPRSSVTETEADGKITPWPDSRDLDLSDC
Protocol: as §1, §2
as §3, with “expressing human” for “expressing rat”, “of 5” for “of 20”, “for human” for “for rat”, “After 90” for “After 45”, “concentrations (0.01” for “concentrations of displacing ligands selected from the range of 0.01”, “10 μM) of displacing ligands.” for “10 μM.”

[8] = tested on: rodent models of pain; details: rodent models of neuropathic, incisional, chronic and acute inflammatory pain; cited from earlier work
[9] = tested on: rat formalin model of persistent pain; details: cited from earlier work
[10] = competition with 0.5 nM [3H]CP-55,940, HEK293 membranes expressing human CB2, read-out: human CB2 binding (Ki)

In the case of SR144528, the “inhibition of THC effects on atherosclerotic lesions” value [1] is listed as “inhibited”, the “blockade of JWH-133 effects on β-amyloid-induced microglial activation and neurotoxicity” value [2] is listed as “blocked” and the “effect on osteoclast activity” value [3] is listed as “inhibit”. For the same molecule, the “effect on ovariectomy-induced bone loss” value [4] was “reverse”.
For `CN1CCCCC1Cn1cc(C(=O)c2cc([N+](=O)[O-])ccc2I)c2ccccc21` (stereo not shown) [AM-1241], the analgesic efficacy [5] is listed as “robust analgesic efficacy”.
For (−)-Δ^9-Tetrahydrocannabinol [THC], the “progression of atherosclerotic lesions” value ([1]; low doses) is listed as “slowed the progression”.
`COCCCn1/c(=N/C(=O)c2cc(C(F)(F)F)ccc2/C=C/C(C)(C)O)cc(C(C)(C)C)n1C` [Example 14, N-[(3E)-5-tert-butyl-2-(3-methoxypropyl)-1-methyl-1,2-dihydro-3H-pyrazol-3-ylidene]-2-[(1E)-3-hydroxy-3-methylbut-1-enyl]-5-(trifluoromethyl)benzamide] showed a pKi [6] of 7.51 and a pKi [7, 10] of 6.95.
`CCCCCn1/c(=N/C(=O)c2cc(C(F)(F)F)ccc2CCC(C)(C)O)cc(C(C)(C)C)n1C` [Example 2, N-[(3E)-5-tert-butyl-1-methyl-2-pentyl-1,2-dihydro-3H-pyrazol-3-ylidene]-2-(3-hydroxy-3-methylbutyl)-5-(trifluoromethyl)benzamide] showed a pKi [6] of 7.60 and a pKi [7] of 7.49.
Work on `CCCCn1/c(=N/C(=O)c2cc(C(F)(F)F)ccc2CN2CC(O)C2)cc(C(C)(C)C)n1C` [Example 24, N-[(3E)-2-butyl-5-tert-butyl-1-methyl-1,2-dihydro-3H-pyrazol-3-ylidene]-2-[(3-hydroxyazetidin-1-yl)methyl]-5-(trifluoromethyl)benzamide] yielded a pKi [6] of 7.06 and a pKi [7, 10] of 6.93.
For `COc1ccc2c(c1)c(CCN1CCOCC1)c(C)n2C(=O)c1cccc(Cl)c1Cl` [GW405833], the “efficacy in pain models” value [8] is listed as “efficacious”.
`CCCCn1nc(C(C)(C)C)s/c1=N\C(=O)c1cc(C(F)(F)F)ccc1CN1CC(C(C)(C)O)C1` [Example 22, N-[(2Z)-3-butyl-5-tert-butyl-1,3,4-thiadiazol-2(3H)-ylidene]-2-{[3-(1-hydroxy-1-methylethyl)azetidin-1-yl]methyl}-5-(trifluoromethyl)benzamide] gave a pKi [6] of 8.67 and a pKi [7] of 8.27.
For `CCCC(C)(C)c1ccc2c(c1)OC(C)(C)[C@@H]1CC=C(C)C[C@@H]21` [JWH-133], the “effect on β-amyloid-induced microglial activation and neurotoxicity” value [2] is given as “abrogated”.
With `CCCCn1nc(C(C)(C)C)s/c1=N\C(=O)c1cc(C(F)(F)F)ccc1CO` [Example 20, N-[(2Z)-3-butyl-5-tert-butyl-1,3,4-thiadiazol-2(3H)-ylidene]-2-(hydroxymethyl)-5-(trifluoromethyl)benzamide] the pKi [6] was 9.24 and the pKi [7] was 8.72.
In the case of `CCCCCCC(C)(C)c1cc(OC)c([C@@H]2C=C(CO)[C@@H]3C[C@H]2C3(C)C)c(OC)c1` [HU-308], the antinociceptive response [9] is given as “elicits an antinociceptive response”.

From US8288428B2, “Compounds as cannabinoid receptor ligands” (Abbott Laboratories, priority 2009, dated 2012)
